Assay: xn = mol fraction of the nth substance listed
Settings: 101 kPa, Liquid; for viscosity: Capillary tube (Ostwald / Ubbelohde) method; for mass density: Vibrating tube method

CCN(CC)CCO [(diethylamino)ethanol] + O
Settings | mass density, 293.15 K [kg/m3] | mass density, 303.15 K [kg/m3] | mass density, 313.15 K [kg/m3] | mass density, 323.15 K [kg/m3] | mass density, 333.15 K [kg/m3] | viscosity, 293.15 K [mPa·s] | viscosity, 303.15 K [mPa·s] | viscosity, 313.15 K [mPa·s] | viscosity, 323.15 K [mPa·s] | viscosity, 333.15 K [mPa·s]
x1 = 0.1001 | 982 | 974.2 | 966.6 | 958.5 | 950.1 | 7.938 | 5.548 | 3.741 | 2.623 | 1.94
x1 = 0.2005 | 962.4 | 953 | 944.3 | 935 | 925.6 | 17.02 | 10.01 | 6.284 | 4.233 | 2.937
x1 = 0.2997 | 946.6 | 936.8 | 926.9 | 917.5 | 907.6 | 20.5 | 11.01 | 7.194 | 4.584 | 3.15
x1 = 0.3978 | 933.4 | 923.2 | 913.9 | 903.7 | 893.9 | 20.32 | 9.991 | 6.145 | 4.058 | 2.963
x1 = 0.4997 | 922.2 | 912 | 901.8 | 892 | 882.4 | 17.73 | 9.074 | 5.477 | 3.605 | 2.593
x1 = 0.5992 | 914.4 | 903.2 | 892.8 | 882.3 | 872.5 | 14.8 | 8.421 | 5.078 | 3.05 | 2.4
x1 = 0.6897 | 906.3 | 894.8 | 884.2 | 873.9 | 864.7 | 12.42 | 7.125 | 4.663 | 2.692 | 2.102
x1 = 0.7997 | 899.6 | 887.4 | 876.9 | 867.4 | 857.3 | 9.723 | 6.002 | 3.878 | – | 1.794
x1 = 0.8997 | 895.5 | 880.8 | 870.7 | 861.4 | 851.9 | 7.341 | 4.868 | 3.402 | 2.141 | 1.619
x1 = 1 | 891.2 | 874.4 | 865.4 | 856.4 | 845.6 | 4.848 | 3.41 | 2.466 | 1.855 | 1.431

NCCO [2-aminoethan-1-ol] + O
Settings | mass density, 293.15 K [kg/m3] | mass density, 303.15 K [kg/m3] | mass density, 313.15 K [kg/m3] | mass density, 323.15 K [kg/m3] | mass density, 333.15 K [kg/m3] | viscosity, 293.15 K [mPa·s] | viscosity, 303.15 K [mPa·s] | viscosity, 313.15 K [mPa·s] | viscosity, 323.15 K [mPa·s] | viscosity, 333.15 K [mPa·s]
x1 = 0.1 | 1010.9 | 1007 | 1002.5 | 997.4 | 991.7 | 2.669 | 1.953 | 1.495 | 1.147 | 0.903
x1 = 0.1999 | 1021.1 | 1016 | 1010.6 | 1004.4 | 998 | 5.763 | 3.976 | 2.388 | 1.819 | 1.429
x1 = 0.2998 | 1027.1 | 1021 | 1014.3 | 1007.5 | 1000.5 | 10.28 | 6.221 | 4.011 | 3 | 2.268
x1 = 0.4 | 1029.4 | 1022.6 | 1015.5 | 1008.3 | 1000.8 | 15.22 | 9.814 | 6.589 | 4.621 | 3.387
x1 = 0.4998 | 1029.3 | 1022 | 1014.6 | 1007 | 999.4 | 19.75 | 12.4 | 8.077 | 5.671 | 4.071
x1 = 0.5995 | 1028.1 | 1020.3 | 1012.7 | 1004.9 | 997 | 22.83 | 14.17 | 9.474 | 6.412 | 4.784
x1 = 0.6982 | 1026.3 | 1018 | 1010.4 | 1002.8 | 994.9 | 24.37 | 15.25 | 10.05 | 7.035 | 4.978
x1 = 0.7974 | 1023.8 | 1015.1 | 1007.1 | 999.4 | 991.5 | 25.19 | 15.62 | 10.09 | 7.169 | 5.014
x1 = 0.8995 | 1021.2 | 1013 | 1005.1 | 997.2 | 988.1 | 24.62 | 15.17 | 10.08 | 7.12 | 5.001
x1 = 1 | 1016.9 | 1009.5 | 1001.1 | 992.7 | 984.3 | 23.79 | 14.83 | 9.89 | 6.872 | 4.99
